Earlier results, collected in PubChem BioAssay AID1259409 (Chemical Carcinogenesis Research Information System (CCRIS), 2018).

System: rodent chemically induced tumor inhibition, incidence and multiplicity
Assay: CCRIS tumor inhibitor studies

SMILES: CC[C@@H](C)[C@H](NC(=O)CN)C(=O)N[C@H](C(=O)N[C@@H](CCC(=O)O)C(=O)N[C@@H](CCC(N)=O)C(=O)N[C@H]1CSSC[C@H]2NC(=O)[C@H]([C@H](C)CC)NC(=O)[C@H](CO)NC(=O)[C@H]([C@H](C)O)NC(=O)[C@H](CSSC[C@H](NC(=O)[C@H](CC(C)C)NC(=O)[C@H](Cc3c[nH]cn3)NC(=O)[C@H](CCC(N)=O)NC(=O)[C@@H](NC(=O)[C@@H](NC(=O)[C@@H](N)Cc3ccccc3)C(C)C)C(N)=O)C(=O)NCC(=O)N[C@@H](CO)C(=O)N[C@@H](Cc3c[nH]cn3)C(=O)N[C@@H](CC(C)C)C(=O)N[C@@H](C(C)C)C(=O)N[C@@H](CCC(=O)O)C(=O)N[C@@H](C)C(=O)N[C@@H](CC(C)C)C(=O)N[C@@H](Cc3ccc(O)cc3)C(=O)N[C@@H](CC(C)C)C(=O)N[C@@H](C(C)C)C(=O)N[C@H](C(=O)NCC(=O)N[C@@H](CCC(=O)O)C(=O)N[C@@H](CCCNC(=N)N)C(=O)NCC(=O)N[C@@H](Cc3ccccc3)C(=O)N[C@@H](Cc3ccccc3)C(=O)N[C@@H](Cc3ccc(O)cc3)C(=O)N[C@H](C(=O)N3CCC[C@H]3C(=O)N[C@@H](CCCCN)C(=O)N[C@H](C(=O)O)[C@H](C)O)[C@H](C)O)CSSC[C@@H](C(=O)N[C@@H](CC(N)=O)C(=O)O)NC(=O)[C@H](Cc3ccc(O)cc3)NC(=O)[C@H](CC(N)=O)NC(=O)[C@H](CCC(=O)O)NC(=O)[C@H](CC(C)C)NC(=O)[C@H](CCC(N)=O)NC(=O)[C@H](Cc3ccc(O)cc3)NC(=O)[C@H](CC(C)C)NC(=O)[C@H](CO)NC2=O)NC1=O)C(C)C
- tumour outcome (control, treated, inhibition, significance) (Carcinogen: 7,12-DIMETHYLBENZ[A]ANTHRACENE, 57-97-6, Dose [Inhibitor]: 0, 10 I.U. FOR 7 D BEGINNING 3 D PRIOR TO CARCINOGEN DOSE (STUDY DURATION: 6 MO), Route [Inhibitor]: SUBCUTANEOUS, Species: RAT, Strain/Sex: SWISS/FEMALE, Target Tissue: Type of Lesion: MAMMARY GLAND: TUMOR, Dose [Carcinogen]: 20 MG IN 4 ML OLIVE OIL ONCE, Promoter: NONE USED): 22/33 (67%), 6/32 (19%), 72%, not calculated

SMILES: CC[C@H](CC[C@@H](C)[C@H]1CC[C@H]2[C@@H]3CC=C4C[C@@H](O)CC[C@]4(C)[C@H]3CC[C@]12C)C(C)C
- tumour outcome (control, treated, inhibition, significance) (Carcinogen: 7,12-DIMETHYLBENZ[A]ANTHRACENE, 57-97-6, Dose [Inhibitor]: 0, 5 UMOL 2/WK BEGINNING 1 WK POST CARCINOGEN TREATMENT AND CONTINUING FOR 18 WK (STUDY DURATION: 19 WK), Route [Inhibitor]: DERMAL, Species: MOUSE, Strain/Sex: ICR/FEMALE, Target Tissue: Type of Lesion: SKIN: PAPILLOMA, Dose [Carcinogen]: 50 UG ONCE, Promoter: 12-O-TETRADECANOYLPHORBOL-13-ACETATE, 16561-29-8): 100%, 80%, 20%, not calculated
- tumour outcome (control, treated, inhibition, significance) (Carcinogen: AZOXYMETHANE, 25843-45-2, Dose [Inhibitor]: 2 G/KG DIET DAILY FOR 26 WK STARTING SIMULTANEOUSLY WITH CARCINOGEN TREATMENT (STUDY DURATION: 26 WK), Route [Inhibitor]: ORAL, Species: RAT, Strain/Sex: SPRAGUE-DAWLEY/MALE, Target Tissue: Type of Lesion: LARGE INTESTINE: MALIGNANT TUMOR, Dose [Carcinogen]: 8 MG/KG BW INJECTED 1/WK FOR 8 WK, Promoter: NONE USED): 90%, 93%, -3%, not significant
- tumour outcome (control, treated, inhibition, significance) (Carcinogen: AZOXYMETHANE, 25843-45-2, Dose [Inhibitor]: 2 G/KG DIET DAILY FOR 26 WK STARTING SIMULTANEOUSLY WITH CARCINOGEN TREATMENT (STUDY DURATION: 26 WK), Route [Inhibitor]: ORAL, Species: RAT, Strain/Sex: SPRAGUE-DAWLEY/MALE, Target Tissue: Type of Lesion: SMALL INTESTINE: MALIGNANT TUMOR, Dose [Carcinogen]: 8 MG/KG BW INJECTED 1/WK FOR 8 WK, Promoter: NONE USED): 90%, 96%, -7%, not significant
- tumour outcome (control, treated, inhibition, significance) (Carcinogen: AZOXYMETHANE, 25843-45-2, Dose [Inhibitor]: 2 G/KG DIET DAILY STARTING SIMULTANEOUSLY WITH CARCINOGEN TREATMENT AND CONTINUING THROUGH END OF STUDY (STUDY DURATION:, Route [Inhibitor]: ORAL, Species: RAT, Strain/Sex: SPRAGUE-DAWLEY/MALE, Target Tissue: Type of Lesion: LARGE INTESTINE: MALIGNANT TUMOR, Dose [Carcinogen]: 8 MG/KG BW 1/WK FOR 8 WK, Promoter: NONE USED): 90%, 93%, -3%, not significant
- tumour outcome (control, treated, inhibition, significance) (Carcinogen: AZOXYMETHANE, 25843-45-2, Dose [Inhibitor]: 2 G/KG DIET DAILY STARTING SIMULTANEOUSLY WITH CARCINOGEN TREATMENT AND CONTINUING THROUGH END OF STUDY (STUDY DURATION:, Route [Inhibitor]: ORAL, Species: RAT, Strain/Sex: SPRAGUE-DAWLEY/MALE, Target Tissue: Type of Lesion: SMALL INTESTINE: MALIGNANT TUMOR, Dose [Carcinogen]: 8 MG/KG BW 1/WK FOR 8 WK, Promoter: NONE USED): 90%, 96%, -7%, not significant
- tumour outcome (control, treated, inhibition, significance) (Carcinogen: N-METHYL-N-NITROSOUREA, 684-93-5, Dose [Inhibitor]: 0.2% IN DIET DAILY FOR 28 WK STARTING SIMULTANEOUSLY WITH CARCINOGEN TREATMENT AND CONTINUING FOR DURATION OF STUDY (STU, Route [Inhibitor]: ORAL, Species: RAT, Strain/Sex: FISCHER CD/MALE, Target Tissue: Type of Lesion: COLON: ADENOMA, Dose [Carcinogen]: 2 MG IN 0.5 ML OF 0.9% NACL SOLUTION 1/3 D FOR 10 D, Promoter: NONE USED): 38/71 (54%), 16/48 (33%), 39%, p<0.05

SMILES: C[N+](C)(C)CC(=O)O
- tumour outcome (control, treated, inhibition, significance) (Carcinogen: ETHIONINE, 13073-35-3, Dose [Inhibitor]: 5.2 MMOL/100 G DIET DAILY FOR 8 MO ADMINISTERED SIMULTANEOUSLY WITH CARCINOGEN FOLLOWED BY 4 MO ON BASAL DIET (STUDY DUR, Route [Inhibitor]: ORAL, Species: RAT, Strain/Sex: WISTAR/MALE, Target Tissue: Type of Lesion: LIVER: CARCINOMA, Dose [Carcinogen]: 0.25% OF DIET DAILY FOR 8 MO, Promoter: NONE USED): 8/8 (100%), 1/10 (10%), 90%, not calculated
